Experimental data published in PubChem BioAssay (NCI).
“And” between values parts separate entries of the source, which are not always exact repeats. Equal entries are not always repeated.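 Tested at 5 concentrations; 48 h exposure; 96-well plates; endpoints linearly interpolated, else capped at highest concentration. GI50 is the concentration that inhibits growth by half. TGI: total growth inhibition.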

Legend:
Test in all cases: inhibition of tumour cell growth, NCI panel, 48 h
HCT-15 colon = tested on: HCT-15 colon
SNB-19 CNS = tested on: SNB-19 CNS
NCI-H460 lung = tested on: NCI-H460 lung
OVCAR-8 ovarian = tested on: OVCAR-8 ovarian
HOP-62 NSCLC = tested on: HOP-62 NSCLC
OVCAR-4 ovarian = tested on: OVCAR-4 ovarian
U251 CNS = tested on: U251 CNS
MCF7 breast = tested on: MCF7 breast
HOP-92 NSCLC = tested on: HOP-92 NSCLC
NCI/ADR-RES ovarian = tested on: NCI/ADR-RES ovarian

SMILES | GI50 (HCT-15 colon) [µM] | TGI (HCT-15 colon) [µM] | GI50 (SNB-19 CNS) [µM] | TGI (SNB-19 CNS) [µM] | GI50 (NCI-H460 lung) [µM] | TGI (NCI-H460 lung) | GI50 (OVCAR-8 ovarian) [µM] | TGI (OVCAR-8 ovarian) [µM] | GI50 (HOP-62 NSCLC) [µM] | TGI (HOP-62 NSCLC) [µM] | GI50 (OVCAR-4 ovarian) [µM] | TGI (OVCAR-4 ovarian) [µM] | GI50 (U251 CNS) [µM] | TGI (U251 CNS) [µM] | GI50 (MCF7 breast) [µM] | TGI (MCF7 breast) [µM] | GI50 (HOP-92 NSCLC) [µM] | TGI (HOP-92 NSCLC) [µM] | TGI (NCI/ADR-RES ovarian) [µM] | GI50 (NCI/ADR-RES ovarian) [µM]
O=C(Nc1cccc(-n2ccc3c(NC(=O)c4ccccc4)nccc32)c1)Nc1cc(C(F)(F)F)cc(C(F)(F)F)c1 | 1.07 | 33.2 | 2.32 | > 50 | 1.7 | > 50 µM | 1.65 | 5.14 | 3.75 | > 50 | 1.93 | > 50 | 1.63 | 7.68 | 1.65 | > 50 | 0.853 | 3.95 | – | –
CC(NC(=O)C(C)NC(=O)C(N)CCP(C)(=O)O)C(=O)O (stereo not drawn) | – | > 100 | – | > 100 | – | > 100 µM | – | > 100 | – | > 100 | – | > 100 | – | > 100 | – | > 100 | – | > 100 | > 100 | –
Nc1nc(SCc2ccc([N+](=O)[O-])cc2)nc2c1ncn2C1OC(COP(=O)(O)O)C(O)C1O (stereo not drawn) | – | > 100 | – | > 100 | – | > 100 µM | – | > 100 | – | > 100 | – | > 100 | – | > 100 | – | – | – | > 100 | – | –
N[C@H](C(=O)O)[C@H]1ON=C(Cl)[C@@H]1O | 3.95 | > 550 | 40.7 | > 550 | 3.92 | > 52.9 µM and 174 µM | 12.2 | > 550 | 16 | 78.2 | 5.32 | 42.2 | 11.4 | > 550 | 0.374 | > 550 | 52.2 | 269 | > 469 | 15.3
CCOP(=O)(OCC)/C(C#N)=C/c1cn(C)cn1 | – | > 100 | – | > 100 | – | > 100 µM | – | > 100 | – | > 100 | – | > 100 | – | > 100 | – | > 100 | – | > 100 | > 100 | –
O=S(=O)(CCBr)CCBr | – | 7.88 | – | 35 | – | 29.9 µM | – | 5.68 | – | 43.1 | – | 22.5 | – | 29.2 | – | 18.3 | – | 20.9 | 5.02 | –
CC1=Nc2nc(Cl)cn2C(=O)C1(Cl)Cl | – | > 10 | – | > 10 | – | > 10 µM | – | > 10 | – | > 10 | – | > 10 | – | > 10 | – | > 10 | – | – | > 10 | –
Cc1ccc(N=N/C(=N\NC(=O)c2ccc(C)cc2)c2ccc(N(CCC#N)CCC#N)cc2C)cc1 | – | > 100 | – | > 100 | – | > 100 µM | – | > 100 | – | > 100 | – | > 100 | – | > 100 | – | > 100 | – | > 100 | > 100 | –
C[Si](C)(OCCS(=O)(=O)O)C1(Cc2cccc3ccccc23)S(=O)(=O)OCCOS1(=O)=O | – | 52.1 | – | 42.9 | – | 41.1 µM | – | 52.4 | – | 45 | – | 52.3 | – | 63.7 | – | 39.5 | – | 50.7 | > 100 | –
Cc1ccc(N2Cc3c(ccc4ccccc34)OP2(=O)Oc2ccc(Cl)c(C)c2)cc1 (stereo not drawn) | – | > 100 | – | > 100 | – | > 100 µM | – | > 100 | – | > 100 | – | > 100 | – | > 100 | – | > 100 | – | > 100 | > 100 | –
COc1ccc(-n2cnnc2-c2nsc3ccccc23)cc1 | – | > 100 | – | > 100 | – | > 100 µM | – | > 100 | – | > 100 | – | > 100 | – | > 100 | – | – | – | > 100 | – | –
